Experimental data from ChEMBL document CHEMBL1153701, “Synthesis and evaluation of antiallodynic and anticonvulsant activity of novel amide and urea derivatives of valproic acid analogues” (2009).
Calls of active or inactive are those of the source. No cut-off for these calls is given here.

Experiments:
[1] = tested on: Rattus norvegicus; assay: Antiallodynic activity in ip dosed rat assessed as protection against spinal nerve ligation-induced neuropathic pain; format: functional
[2] = species on record: Rattus norvegicus; assay: Ratio of ED50 for antiallodynic activity in rat assessed as protection against spinal nerve ligation-induced neuropathic pain to ED50 for antiepileptic activity in rat by maximal electroshock-induced seizures assay; format: functional
[3] = tested on: Mus musculus; assay: Antiepileptic activity in ip dosed CF1 mouse assessed as inhibition of maximal electroshock-induced seizures; format: functional
[4] = tested on: Mus musculus; assay: Neurotoxicity in CF1 mouse assessed as protection against motor impairment at 100 mg/kg, ip after 4 hrs by rotarod test; format: functional, organism-based; design: dose 100 mg/kg
[5] = tested on: Rattus norvegicus; assay: Antiallodynic activity in rat assessed as protection against spinal nerve ligation-induced neuropathic pain at 80 mg/kg, ip after 240 mins; format: functional, organism-based; design: dose 80 mg/kg
[6] = tested on: Rattus norvegicus; assay: Antiallodynic activity in rat assessed as protection against spinal nerve ligation-induced neuropathic pain at 80 mg/kg, ip after 180 mins; format: functional, organism-based; design: dose 80 mg/kg
[7] = tested on: Rattus norvegicus; assay: Antiallodynic activity in rat assessed as protection against spinal nerve ligation-induced neuropathic pain at 80 mg/kg, ip after 30 mins; format: functional, organism-based; design: dose 80 mg/kg
[8] = tested on: Mus musculus; assay: Antiepileptic activity in CF1 mouse assessed as inhibition of subcutaneous pentylenetetrazole-induced seizures at 100 mg/kg, ip after 4 hrs; format: functional, organism-based; design: dose 100 mg/kg
[9] = tested on: Rattus norvegicus; assay: Antiallodynic activity in rat assessed as protection against spinal nerve ligation-induced neuropathic pain at 80 mg/kg, ip after 60 mins; format: functional, organism-based; design: dose 80 mg/kg
[10] = tested on: Mus musculus; assay: Neurotoxicity in CF1 mouse assessed as protection against motor impairment at 300 mg/kg, ip after 4 hrs by rotarod test; format: functional, organism-based; design: dose 300 mg/kg
[11] = tested on: Mus musculus; assay: Antiepileptic activity in CF1 mouse assessed as inhibition of subcutaneous pentylenetetrazole-induced seizures at 300 mg/kg, ip after 4 hrs; format: functional, organism-based; design: dose 300 mg/kg
[12] = tested on: Rattus norvegicus; assay: Anticonvulsant activity in ip dosed albino Sprague-Dawley rat assessed as protection against pilocarpine-induced seizure; format: functional
[13] = tested on: Mus musculus; assay: Antiepileptic activity in CF1 mouse assessed as inhibition of subcutaneous pentylenetetrazole-induced seizures at 30 mg/kg, ip after 4 hrs; format: functional, organism-based; design: dose 30 mg/kg
[14] = tested on: Mus musculus; assay: Antiepileptic activity in CF1 mouse assessed as inhibition of maximal electroshock-induced seizures at 30 mg/kg, ip after 0.5 hrs; format: functional, organism-based; design: dose 30 mg/kg
[15] = tested on: Mus musculus; assay: Neurotoxicity in CF1 mouse assessed as protection against motor impairment at 30 mg/kg, ip after 4 hrs by rotarod test; format: functional, organism-based; design: dose 30 mg/kg
[16] = tested on: Mus musculus; assay: Antiepileptic activity in CF1 mouse assessed as inhibition of maximal electroshock-induced seizures at 300 mg/kg, ip after 0.5 hrs; format: functional, organism-based; design: dose 300 mg/kg
[17] = tested on: Mus musculus; assay: Antiepileptic activity in CF1 mouse assessed as inhibition of subcutaneous pentylenetetrazole-induced seizures at 300 mg/kg, ip after 0.5 hrs; format: functional, organism-based; design: dose 300 mg/kg
[18] = tested on: Mus musculus; assay: Neurotoxicity in CF1 mouse assessed as protection against motor impairment at 100 mg/kg, ip after 0.5 hrs by rotarod test; format: functional, organism-based; design: dose 100 mg/kg
[19] = tested on: Mus musculus; assay: Neurotoxicity in CF1 mouse assessed as protection against motor impairment at 30 mg/kg, ip after 0.5 hrs by rotarod test; format: functional, organism-based; design: dose 30 mg/kg
[20] = tested on: Rattus norvegicus; assay: Antiallodynic activity in rat assessed as protection against spinal nerve ligation-induced neuropathic pain at 80 mg/kg, ip after 120 mins; format: functional, organism-based; design: dose 80 mg/kg
[21] = tested on: Mus musculus; assay: Antiepileptic activity in CF1 mouse assessed as inhibition of maximal electroshock-induced seizures at 300 mg/kg, ip after 4 hrs; format: functional, organism-based; design: dose 300 mg/kg
[22] = tested on: Mus musculus; assay: Neurotoxicity in CF1 mouse assessed as protection against motor impairment at 300 mg/kg, ip after 0.5 hrs by rotarod test; format: functional, organism-based; design: dose 300 mg/kg
[23] = tested on: Mus musculus; assay: Antiepileptic activity in CF1 mouse assessed as inhibition of subcutaneous pentylenetetrazole-induced seizures at 30 mg/kg, ip after 0.5 hrs; format: functional, organism-based; design: dose 30 mg/kg
[24] = tested on: Mus musculus; assay: Antiepileptic activity in CF1 mouse assessed as inhibition of maximal electroshock-induced seizures at 30 mg/kg, ip after 4 hrs; format: functional, organism-based; design: dose 30 mg/kg
[25] = tested on: Mus musculus; assay: Antiepileptic activity in CF1 mouse assessed as inhibition of maximal electroshock-induced seizures at 100 mg/kg, ip after 4 hrs; format: functional, organism-based; design: dose 100 mg/kg
[26] = tested on: Mus musculus; assay: Antiepileptic activity in CF1 mouse assessed as inhibition of subcutaneous pentylenetetrazole-induced seizures at 100 mg/kg, ip after 0.5 hrs; format: functional, organism-based; design: dose 100 mg/kg
[27] = tested on: Mus musculus; assay: Antiepileptic activity in CF1 mouse assessed as inhibition of maximal electroshock-induced seizures at 100 mg/kg, ip after 0.5 hrs; format: functional, organism-based; design: dose 100 mg/kg
[28] = tested on: Rattus norvegicus; assay: Anticonvulsant activity in albino Sprague-Dawley rat assessed as protection against pilocarpine-induced seizure at 450 mg/kg, ip; format: functional, organism-based; design: dose 450 mg/kg
[29] = tested on: Rattus norvegicus; assay: Anticonvulsant activity in albino Sprague-Dawley rat assessed as protection against pilocarpine-induced seizure at 600 mg/kg, ip treated after 30 mins of pilcarpine challenge; format: functional, organism-based; design: dose 600 mg/kg
[30] = tested on: Rattus norvegicus; assay: Anticonvulsant activity in albino Sprague-Dawley rat assessed as protection against pilocarpine-induced seizure at 200 mg/kg, ip; format: functional, organism-based; design: dose 200 mg/kg
[31] = tested on: Rattus norvegicus; assay: Anticonvulsant activity in albino Sprague-Dawley rat assessed as protection against pilocarpine-induced seizure at 65 mg/kg, ip; format: functional, organism-based; design: dose 65 mg/kg
[32] = tested on: Rattus norvegicus; assay: Anticonvulsant activity in albino Sprague-Dawley rat assessed as protection against pilocarpine-induced seizure at 130 mg/kg, ip treated after 30 mins of pilcarpine challenge; format: functional, organism-based; design: dose 130 mg/kg

Row | SMILES | ED50 [1] [mg/kg] | ED50 [3] | Activity [4] | Activity [8] | Activity [10] | Activity [11] | Activity [13] | Activity [14] | Activity [15] | Activity [16] | Activity [17] | Activity [18] | Activity [19] | Activity [21] | Activity [22] | Activity [23] | Activity [24] | Activity [25] | Activity [26] | Activity [27] | also measured
1 | CCCC(C(N)=O)C(C)C (configuration not stated) | 42 | 22 mg/kg | – | – | – | – | – | – | – | – | – | – | – | – | – | – | – | – | – | – | ratio [2]: 0.52
2 | CCCCC(CC)C(=O)NC(N)=O (configuration not stated) | – | – | inactive | inactive | inactive | inactive | inactive | inactive | inactive | Active | Active | inactive | inactive | inactive | Active | inactive | inactive | inactive | inactive | – | Activity [5]: inactive; Activity [6]: inactive; Activity [7]: inactive; Activity [9]: inactive; ED50 [12]: 247 mg/kg; ED97 [12]: 439 mg/kg; Activity [20]: inactive
3 | CC(C)C(C)C(N)=O (configuration not stated) | – | – | inactive | inactive | inactive | inactive | inactive | inactive | inactive | inactive | inactive | inactive | inactive | inactive | inactive | inactive | inactive | inactive | inactive | inactive | Activity [28]: Active; Activity [29]: Active
4 | CCC(C(N)=O)C(C)(C)C (configuration not stated) | – | – | inactive | inactive | inactive | inactive | inactive | inactive | inactive | inactive | Active | inactive | inactive | Active | – | inactive | inactive | inactive | inactive | inactive | Activity [5]: inactive; ED50 [12]: 257 mg/kg; ED97 [12]: 451 mg/kg; Activity [30]: Active
5 | CCCC(C(N)=O)C(C)(C)C (configuration not stated) | – | – | inactive | inactive | – | inactive | inactive | inactive | inactive | Active | Active | – | inactive | Active | – | inactive | inactive | – | inactive | – | Activity [31]: Active; Activity [32]: Active
6 | CCCC(C)C(N)=O (configuration not stated) | – | – | inactive | inactive | inactive | inactive | inactive | inactive | inactive | inactive | inactive | inactive | inactive | inactive | inactive | inactive | inactive | inactive | inactive | inactive | Activity [7]: inactive; Activity [9]: inactive
7 | CCCC(CCC)C(N)=O [VALPROMIDE] | 61 | 32 mg/kg | – | – | – | – | – | – | – | – | – | – | – | – | – | – | – | – | – | – | ratio [2]: 0.52
8 | CCC(C)C(C(N)=O)C(C)C (configuration not stated) | 50 | inactive | inactive | inactive | – | inactive | inactive | inactive | inactive | Active | Active | Active | inactive | inactive | Active | inactive | inactive | inactive | Active | Active | –
9 | CNC(=O)CC(C)(C)C | – | – | inactive | inactive | inactive | inactive | inactive | inactive | inactive | inactive | inactive | inactive | inactive | inactive | inactive | inactive | inactive | inactive | inactive | inactive | Activity [5]: inactive; Activity [6]: inactive; Activity [7]: inactive; Activity [9]: inactive; Activity [20]: inactive
10 | CC(C)(C)CC(N)=O | – | – | inactive | – | – | inactive | inactive | inactive | inactive | inactive | inactive | inactive | inactive | inactive | – | inactive | inactive | inactive | inactive | inactive | Activity [5]: inactive; Activity [6]: inactive; Activity [7]: inactive; Activity [9]: inactive; Activity [20]: inactive
11 | CCC(C)C(N)=O (configuration not stated) | – | – | inactive | inactive | inactive | inactive | inactive | inactive | inactive | inactive | inactive | inactive | inactive | inactive | inactive | inactive | inactive | inactive | inactive | inactive | Activity [7]: inactive; Activity [9]: inactive; Activity [20]: inactive
12 | CC(C)C(C(N)=O)C(C)C | 58 | 51 mg/kg | – | – | – | – | – | – | – | – | – | – | – | – | – | – | – | – | – | – | ratio [2]: 0.88
13 | CCCC(C(N)=O)C(C)CC (configuration not stated) | 49 | inactive | inactive | inactive | inactive | inactive | inactive | inactive | inactive | Active | Active | inactive | inactive | inactive | – | inactive | inactive | inactive | inactive | – | ED50 [12]: 84 mg/kg; ED97 [12]: 149 mg/kg; Activity [31]: Active; Activity [32]: Active
14 | CCC(C)C(CC)C(N)=O (configuration not stated) [VALNOCTAMIDE] | 52 | 29 mg/kg | – | – | – | – | – | – | – | – | – | – | – | – | – | – | – | – | – | – | ratio [2]: 0.56
